Experimental data: PMC10988762, “Inhibition of malaria and babesiosis parasites by putative red blood cell targeting small molecules” (Frontiers in Cellular and Infection Microbiology, 2024)
Read-outs that look alike come from different tables or passages of the source. Marks after values point to notes of the source that are not given here.

Tests used:
P. falciparum strain 3D7 = experiment: Inhibitor susceptibility dose-response assay (SYBR-Green I), P. falciparum 3D7; type: cell-based, Plasmodium falciparum; details: Plasmodium falciparum, read-out: IC50 (S.D.), P. falciparum-3D7
Method: (§1) The P. falciparum strains 3D7 and Dd2 were obtained from the Walter and Eliza Hall Institute (Melbourne, Australia) and the Malaria Research and Reference Reagent Resource, respectively. […] B. divergens parasites were maintained and assayed in mixed stages without synchronization.
(§2) Ring-stage P. falciparum (1%-parasitemia starting, 1%-hematocrit) and asynchronous B.divergens (0.5%-parasitemia starting, 3%-hematocrit) were incubated with plated compounds for 72h, and ring-stage P. knowlesi (1%-parasitemia starting, 1%-hematocrit) for 48h, before lysis and staining with dye. To quantify the species-specificity of the inhibitors, we divided the range of IC50s across the 4 test lines by the average IC50 across the same lines: inhibitors with increased scores show species-specific activity and reduced scores indicate broad-spectrum, pan-species activity.

P. falciparum strain Dd2 = experiment: Inhibitor susceptibility dose-response assay (SYBR-Green I), P. falciparum Dd2; type: cell-based, Plasmodium falciparum; details: Plasmodium falciparum, read-out: IC50 (S.D.), P. falciparum-Dd2
Method: as §1, §2

P. knowlesi YH1 strain = experiment: microbe, parasite or virus in culture; type: cell-based, Plasmodium knowlesi; details: Plasmodium knowlesi, 48 h, read-out: IC50 (S.D.), P. knowlesi
Method: as §1, §2

[1] = tested on: BdC9 line of B. divergens; experiment: Inhibitor susceptibility dose-response assay (SYBR-Green I), B. divergens; type: cell-based, Babesia divergens; details: for IC50: Babesia divergens, read-out: IC50 (S.D.), B. divergens; for fold higher doses required for 50% inhibition of B. divergens than of the Plasmodium spp. lines: B. divergens vs Plasmodium spp. lines
Method: as §1, §2

[2] = tested on: serum- or growth factor induced fibroblasts; set-up: method as in PMID 8519682; details: cellular proliferation ref PMID 8519682; read-out: Micromolar IC50 (serum- or growth factor induced fibroblasts); cited from earlier work
in vitro = details: human
Description: (§3) We analyzed samples using a volumetric MACSQuant Analyzer Flow Cytometer (Miltenyi Biotec), manually resuspending each row immediately prior to sample uptake. We recorded 10,000 total events for each condition at the instrument-defined low flow rate. We assessed all compounds in 2 separate experiments with blood from different donors. […] All samples were gated for single cell events.

uninfected RBCs [3] = experiment: Cellular phosphatidylserine exposure assay (annexin V flow cytometry);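 on all read-outs here: flow cytometry recording 10,000 events per condition, gated on single cells, with the two experiments using blood from separate donors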; details: for PS exposure on RBCs, in words: 5x P. falciparum 3D7-IC50, 24, 48, 72h
Description: as §3

Plasmodium spp. lines = experiment: Inhibitor susceptibility assays, summary over the Plasmodium spp. lines; type: cell-based; details: for antiparasitic activity in vitro, in words, Plasmodium spp.: Plasmodium spp. parasites; for IC50: approximate value given in text for the Plasmodium spp. lines, read-out: IC50 against the Plasmodium spp. lines
Description: The P. falciparum strains 3D7 and Dd2 were obtained from the Walter and Eliza Hall Institute (Melbourne, Australia) and the Malaria Research and Reference Reagent Resource, respectively. The P. knowlesi YH1 strain adapted for growth in human erythrocytes and the BdC9 line of B. divergens were previously reported ([Lim et al., 2013]; [Rezvani et al., 2022]). All parasite lines were maintained in continuous culture in human erythrocytes O+ purchased from a commercial source (Research Blood Components, Boston USA) in RPMI-1640 medium as described (eg [Rezvani et al., 2022]), typically at 2%-hematocrit. Plasmodium parasites were synchronized using sorbitol (5% [wt/vol] for both P. falciparum and P. knowlesi; for P. knowlesi, with addition of 20 mM Na-HEPES and 0.1 mg/ml BSA) ([Lambros and Vanderberg, 1979]) at least once in the week prior to assays. B. divergens parasites were maintained and assayed in mixed stages without synchronization.
as §2, with “We carried out dose-response assays in 384-well plates (40 µl assay volume) for measurement with SYBR-Green I dye ([Mandt et al., 2019]), with test compounds pre-printed into wells via use of a D300 Digital Dispenser (Hewlett-Packard). Ring-stage” for “Ring-stage”

[4] = experimental logP ref https://go.drugbank.com/drugs/DB08865; cited from earlier work
H2228 = tested on: H2228; set-up: method as in PMID 30333870; details: cellular proliferation ref PMID 30333870; read-out: Micromolar IC50 (H2228); cited from earlier work
SW1990 = tested on: SW1990; set-up: method as in PMID 27487486; details: cellular proliferation ref PMID 27487486; read-out: Micromolar IC50 (SW1990); cited from earlier work
P. falciparum (3D7) = experiment: Assay for inhibition of parasite proliferation via RBC-targeting (transient exposure of RBCs, wash, then infection); type: cell-based, Plasmodium falciparum; details: transient vs continued exposure; dose-response format where stated, n=3
Method: All plates were frozen for storage before assay. For assay, duplicate plates were preincubated with donor O+ RBCs at 2% hematocrit at 37°C in 50µL for 4-5 hours. Following preincubation, one but not the other plate in each pair was washed 4X in complete RPMI to dilute inhibitor. We transferred RBCs from both washed and unwashed plates to black, clear bottom 96-well plates (Corning Cat. No. 3904) and supplemented these suspensions with MACS-purified P. falciparum (3D7) schizonts for a starting parasitemia of 0.1% - 0.25% at 1% hematocrit. Following 72h incubation in standard culture conditions, samples were processed for SYBR-Green I signal ([Mandt et al., 2019]). […] To identify host-targeting compounds, we compared DMSO-treated to inhibitor-treated samples (Students t-test, paired). We carried out the assay with 1 µM mefloquine (Sigma-Aldrich Cat. No. M2319) as a control for reversible inhibition. All assays were conducted in biological triplicate, with each experiment utilizing different donor RBCs. For select compounds, we carried out this same assay in a dose-response series (n=3 experiments). Following normalization to DMSO-controls, we assessed inhibitor activity following transient exposure of RBCs by Two-Way ANOVA tests for repeated measures (Graphpad Prism v9): high P values indicate support for the null hypothesis that dose-dependent inhibition is not modulated by dilution after exposure, consistent with a direct inhibitory effect of the compounds on RBCs persisting after transient exposure.

P. falciparum 3D7 = experiment: Co-administration with established antimalarials, IC50 shift; type: cell-based, Plasmodium falciparum; details: P<0.05
Description: Our experimental compound set is weighted toward kinase inhibitors, reflecting the high degree of small molecule development in this target space.

uninfected RBCs [5] = details: 5x P. falciparum 3D7-IC50; 24, 48, 72h
Description: as §3

Plasmodium berghei = tested on: Plasmodium berghei; set-up: method as in Wu et al., 2017; details: mouse model of severe malaria with Plasmodium berghei ref Wu et al., 2017; cited from earlier work
MEF = tested on: MEF; set-up: method as in PMID 29336889; details: cellular proliferation ref PMID 29336889; read-out: Micromolar IC50 (MEF); cited from earlier work
[6] = tested on: breast cancer cell line panel; set-up: method as in PMID 21159648; details: cellular proliferation ref PMID 21159648; read-out: Micromolar IC50 (breast cancer cell line panel); cited from earlier work
[7] = uninfected RBCs (red blood cells), 1% hematocrit
[8] = 24h, 5x P. falciparum 3D7-IC50, % of RBCs, mean of 2 experiments
[9] = 5x P. falciparum 3D7-IC50, % of RBCs, mean of 2 experiments
[10] = 72h, 5x P. falciparum 3D7-IC50, % of RBCs, mean of 2 experiments
[11] = 3D7, 72h, ring-stage, n=3 experiments (or 2 where indicated with *)
[12] = DD2, 72h, ring-stage, n=3 experiments (or 2 where indicated with *)
[13] = 72h, asynchronous, n=3 experiments (or 2 where indicated with *)

SMILES	IC50 (P. falciparum strain 3D7; 3D7, 72 h)	IC50 (P. falciparum strain Dd2; DD2, 72 h)	IC50 (P. knowlesi YH1 strain)	IC50 ([1]; 72 h)	hemolysis at 24 h, 5 x P. falciparum 3D7-IC50 (in vitro; [7])	hemolysis at 48 h, 5 x P. falciparum 3D7-IC50 (in vitro; [7])	hemolysis at 72 h, 5 x P. falciparum 3D7-IC50 (in vitro; [7])	Phosphatidylserine exposure (%) 24h (uninfected RBCs [3]; [8])	Phosphatidylserine exposure (%) 48h (uninfected RBCs [3]; [9])	Phosphatidylserine exposure (%) 72h (uninfected RBCs [3]; [10])	antiparasitic activity in vitro, in words, B. divergens [1]	antiparasitic activity in vitro, in words, Plasmodium spp. (Plasmodium spp. lines)	hemolysis at 24 h, 5 x P. falciparum 3D7-IC50 (in vitro)	hemolysis at 48 h, 5 x P. falciparum 3D7-IC50 (in vitro)	hemolysis at 72 h, 5 x P. falciparum 3D7-IC50 (in vitro)	Phosphatidylserine exposure (%) 72h (uninfected RBCs [3])	fold higher doses required for 50% inhibition of B. divergens than of the Plasmodium spp. lines [1]	IC50 (Plasmodium spp. lines)	IC50 (P. falciparum strain 3D7; [11])	IC50 (P. falciparum strain Dd2; [12])	other results
COc1ccc(S(=O)(=O)N(CCO)c2ccccc2CN(C)C/C=C/c2ccc(Cl)cc2)cc1 [KN-93 Phosphate]	3.9 µM	3 µM	5 µM	6 µM	-4%	7%	16%	2%	2%	4%											IC50 [2]: 6 to 12 µM
C[C@@H](Oc1cc(-c2cnn(C3CCNCC3)c2)cnc1N)c1c(Cl)ccc(F)c1Cl [Crizotinib]	0.7 µM	0.14 µM	0.8 µM	3 µM					2%		single-digit micromolar activity	potent submicromolar activity	1%	9%	14%	5%					logP (octanol-water partition coefficient), experimental [4]: Crizotinib [drawing 15] (450.3; 1.83^2); IC50 (H2228): 0.311 µM; Phosphatidylserine exposure (%) 24h (uninfected RBCs [3]): 1%
CCCC[C@@H](C=O)NC(=O)[C@H](CC(C)C)NC(=O)OCc1ccccc1 [Calpeptin]	1 µM	1.3 µM	0.9 µM	40 µM	0%	8%	17%	2%	2%	5%							> 30 fold	~1 µM			IC50 (SW1990): 74.2 µM
CC(=O)Nc1cccc(-n2c(=O)n(C3CC3)c(=O)c3c(Nc4ccc(I)cc4F)n(C)c(=O)c(C)c32)c1 [Trametinib]			0.1 µM		-1%	7%	15%	2%	2%	5%	single-digit micromolar activity	potent submicromolar activity					> 30 fold	~0.1 µM	0.09 µM	0.11 µM	IC50 [1, 13]: 6 µM; inhibitory activity following transient exposure of RBCs, in words (P. falciparum (3D7)): does not persist beyond transient exposure; reduction in the IC50 of chloroquine in combination with fixed, sublethal dose of test compound (P. falciparum 3D7): ≤ 2 fold; reduction in the IC50 of mefloquine in combination with fixed, sublethal dose of test compound (P. falciparum 3D7): ≤ 2 fold; hemolysis of RBCs, in words (uninfected RBCs [5]): similarly low levels; survival of infected mice (Plasmodium berghei): improve survival of infected mice; IC50 (MEF): 0.0016 to 0.0048 µM; PS exposure on RBCs, in words (uninfected RBCs [3]): similarly low levels
O=C(O)c1ccc2c(c1)nc(Nc1cccc(Cl)c1)c1ccncc12 [CX-4945]			9 µM					2%	2%				-4%	-1%	16%	3%			9 µM	6 µM	IC50 [1, 13]: 10 µM; hemolysis of RBCs, in words (uninfected RBCs [5]): similarly low levels; IC50 [6]: 1.7 to 20 µM; PS exposure on RBCs, in words (uninfected RBCs [3]): similarly low levels
